The structures appear in SMILES notation.

The values that follow come from a melting point compilation (Tetko et al.; mined from patent text by program, amines drawn as free bases though some values may be those of a salt).

Compound `COc1ccc(/C(=N\O)c2cccc(NS(=O)(=O)N(C)C)c2)cc1` yielded a melting point of 160 to 161 °C.
`Nc1ccc(C(=O)NO)c(O)c1` had a melting point of 180 to 181 °C.
Regarding `O=C1Nc2cc(CN3CC=C(c4ccccc4)CC3)ccc2OC1F` (stereo unspecified), the melting point was found to be 239 °C.
With `CCCCOC(=O)c1c(Cl)nc(CCCC)n1Cc1ccc2oc(-c3ccccc3-c3nnn[nH]3)c(Br)c2c1` the figure was 88 to 90 °C; with `CC(C)(C)OC(=O)NCCCCNC(=O)Cc1ccc2ccccc2c1`, 102 °C.
With `CCC(CC)CNC(=O)c1ccc(CN2C(=O)C3(COc4cc5c(cc43)CCO5)c3ccccc32)cc1` (stereo unspecified) the figure was 211 to 213 °C; with `O=C(NCCCl)NCC1(Cc2ccccc2)CC(=O)C(OCc2ccccc2)=CN1` (stereo unspecified), 130 °C.
Consider `CCOC(=O)C1=Cc2cc(C(=O)Cc3ccccc3)ccc2OC1C(F)(F)F` (stereo unspecified), for which the melting point fell in the range of 136 to 138 °C.
The same measure for `CC(C)(C)c1ccc(C2CC(=O)c3ccccc3O2)cc1` (stereo unspecified): 103 to 104 °C.
For `O=C(O)CCc1cn(Cc2ccc(OCc3csc(-c4ccccc4)n3)cc2)nc1-c1ccccc1`, the melting point lay within 132 to 133 °C.
With `CCOC(=O)c1ccc(OC(F)F)cc1S(=O)(=O)NC(=O)Nc1nc(OC)cc(OC)n1` the figure was 146 to 149 °C; with `Cc1cc(-c2nc(-c3ccncc3)nn2C)cc(C)n1`, 176 to 178 °C; with `CC(C)(C)OC(=O)NCc1cccc(C2CCN(C(=O)c3ccc(C#Cc4ccccc4F)o3)CC2)c1`, 111 to 113 °C.
The same measure for `COc1ccc(-n2c(N)cc(=O)nc2Nc2ccccc2)cc1`: 180 to 190 °C.
With `CCCCN(CCCC)c1ccc(C=Cc2ccc(C=CC3=C(C#N)C(=C(C#N)C#N)OC3(c3ccccc3)C(F)(F)F)s2)c(OC)c1` (stereo unspecified) the figure was 203 to 204 °C; with `CCc1cc(C(=O)O)c(O)cc1C`, 152 to 154 °C; with `CC(=O)c1cccc2oc(C(=O)Nc3ccc(-c4ccc(S(=O)(=O)NC(C(=O)O)C(C)C)cc4)cc3)c(C)c12` (stereo unspecified), 228 to 235 °C.
`CN(C)C=C1CC(=O)Nc2ccccc2C1=O` returned a melting point of 203 to 205 °C.
With `COC(=O)c1c(C)nc(-c2ccccc2)nc1-c1cccc(OC(F)F)c1` the figure was 62 to 63 °C.
The same measure for `Cc1nnc2c(NC(N)=O)cc3cc(-c4ccc(CN5CCCCC5)cc4)ccc3n12`: above 260 °C.
As to `CS(=O)c1ccc(OCc2ccccc2)c(C=O)c1` (stereo unspecified), the melting point is 103 to 104 °C.
The same measure for `COc1ccc(C(=O)N2CCCCc3cc(C4=NNC(=O)SC4C)ccc32)cc1OC` (stereo unspecified): 207 °C; for `CCc1c(F)c(F)c(F)c2c1c(=O)c(C(=O)O)cn2C1CC1`: 197 to 198 °C; for `CC(=Cc1ccc(C(C)(C)C)cc1)C[N+]1([O-])CCCCC1`: 82 to 88 °C.
`COc1ccc(C2CC(=O)N(Cc3ccc4ccc(Cl)cc4n3)C2)cc1OC1CCCC1` (stereo unspecified) displayed a melting point of 106 to 107 °C.
In turn, `Nc1c(C(=O)c2cccc(C(=O)O)c2)[nH]c2cc(Cl)ccc12` registered a melting point of 263 to 270 °C.
With `O=c1[nH]c2cc(Cl)ccc2c(=O)n1S(=O)(=O)c1cccc2cccnc12` the figure was 284 to 286 °C; with `O=c1[nH]nc(CO)c2ccccc12`, 199 to 201 °C.
With `CN(C)c1ccc(S(=O)c2ccccc2)cc1[N+](=O)[O-]` (stereo unspecified) the figure was 125 to 126 °C; with `CCc1cc(C(=O)O)ccc1O`, 134 to 136 °C; with `CC(C)(C)[Si](Oc1ccc2[nH]c(=O)oc(=O)c2c1)(c1ccccc1)c1ccccc1`, 185 °C.
With `O=C(CC12CC3CC(CC(C3)C1)C2)Nc1c(Cl)ccc2nc(N3CCNCC3)ccc12` the figure was 280 to 283 °C; with `O=C(c1ccccc1)c1cc(-c2ccc(Cl)cc2)c(N2CCOCC2)s1`, 180 °C; with `c1ccc2nc(COc3ccc4[nH]ccc4c3)ccc2c1`, 134 to 137 °C.
In the case of `CSC(C)=NOC(=O)NCSN(P1OCC(C)(C)CO1)C(C)(C)C`, the melting point is 167 to 168 °C.
With `Clc1ccc(NC2=NCCN2)c(Cl)c1` the figure was 138 to 139 °C.
`CCN(CC)C(=O)Cc1cc(-c2ccccc2)nc2ccccc12`: the melting point amounted to 86 °C.
With `NCC(=O)N1CCN(C(=O)c2cc(C(F)(F)F)cc(C(F)(F)F)c2)[C@H](Cc2c[nH]c3ccccc23)C1` the figure was 110 to 120 °C.
The same measure for `CCc1c(-c2ccc(OCc3ccccc3)cc2)c2cc(C(=O)O)c3cccc1n32`: 223 to 224 °C; for `C=C(c1cccnc1)c1c(CC(=O)OC)[nH]c2ccccc12`: 154 to 157 °C; for `COc1ccc2c(c1)Sc1cc(OC)ccc1N2CCC#N`: 111 to 113 °C.
With `CN1CCC(C2c3sccc3CCn3ccnc32)CC1` (stereo unspecified) the figure was 121 °C; with `CC(C)(CN1CCN(C(=O)c2ccc(OC(=O)Cc3ccccc3Nc3c(Cl)cccc3Cl)cc2)CC1)SN=O`, 61 to 62 °C.
In turn, `Cn1ncnc1COc1nn2c(-c3ccccc3F)nnc2cc1C1CC(F)(F)C1` showed a melting point of 178 °C.
`COc1cc(OC)c2c(=O)[nH]c(-c3cccc(N4CCN(CC(C)C)CC4)n3)nc2c1` returned a melting point of 188 to 189 °C.
In turn, `COc1cccc2c1OC(C(=O)N1CCC(NC(=O)Nc3ccccc3)CC1)CC2` (stereo unspecified) came in with a melting point of 215 to 216 °C.
The same measure for `Cc1cc(-c2[nH]c3c([N+](=O)[O-])cccc3c2C)cc(C)c1O`: 178 to 179 °C; for `OCc1nn(-c2ccccc2)c2c1CCC2`: 94 to 95 °C.
With `CC(=O)NCCNC(=O)Nc1ccc(-c2c[nH]c(=O)cn2)cc1` the figure was 238 to 244 °C; with `CN1CCN(c2ccc(Nc3ncc4ccc(-c5ccc(S(C)(=O)=O)cc5)n4n3)cc2F)CC1`, 227 °C; with `CCOC(=O)Cn1cc(C#N)nn1`, 47 to 48 °C.
With `CCCCCCCCCCCCCCN(C)c1cc(OCC)c(N)cc1C(=O)O` the figure was 80 to 81 °C; with `Cc1ccc(S(=O)(=O)Nc2ccc(N)c(C3CCCC3)c2)cc1`, 128 °C; with `O=S(=O)(Nc1cnc(-n2ccnc2)nc1NCc1ccc2c(c1)OCO2)c1ccc(Cl)cc1`, 206 to 207 °C.
`Cc1ccc2nc(N3CCN(c4ncccc4C(F)(F)F)CC3)[nH]c2c1` had a melting point of 216 to 217 °C.
In the case of `CC(C)N1C(=O)C(NC(=O)Cc2cc(Cl)cc(Cl)c2)C(=O)N(CC(F)(F)F)c2ccccc21` (stereo unspecified), the melting point fell in the range of 185 to 186 °C.
With `N#C/C=C1\CCc2ncc3c(c21)CCO3` the figure was 231 to 233 °C; with `CCC1=C(C#N)C(c2cccc(Cl)c2Cl)c2c[nH]nc2N1` (stereo unspecified), above 300 °C; with `O=C(O)CCCCCNC(=O)c1ccc(NC(=O)c2ccccc2O)cc1`, 201 to 203 °C.
With `CCCN(CCC)Sc1nc2ccccc2s1` the figure was 57 to 59 °C; with `COC(=O)Nc1nc2cc(F)c(OC(C)c3c(Cl)ccc(F)c3Cl)cc2[nH]1` (stereo unspecified), 245 to 250 °C.
The compound `COc1nc(C)c(C)nc1NC(=S)N1CCN(c2cc(C)cc(C)c2)CC1` yielded a melting point of 160 to 162 °C.
With `COc1cc2c3c(cccc3c1[N+](=O)[O-])C(=O)N(O)C2=O` the figure was 264 to 265 °C; with `CCN(CC)c1ccc(C(c2ccc(N(C)C)cc2C(=O)O)c2ccc(N(C)C)cc2N(C)C)cc1` (stereo unspecified), 128 to 130 °C; with `Nc1nc(NC2CC2)c2ncn(/C=C3/CC3(CO)CO)c2n1`, 164 to 165 °C.
The same measure for `c1ccc(Cn2ccc(CN3CCC(c4ccccc4)(c4ccccc4)CC3)n2)cc1`: 167 to 168 °C; for `C1CCC2NC3NC4CCCCC4NC3NC2C1` (stereo unspecified): 148 to 155 °C; for `CCOC(=O)Cn1cnc(-c2cc(OC)c(OC)c(OC)c2)c1-c1ccc(C(F)(F)F)cc1`: 129 to 134 °C.
Compound `CC(C)(CO)CCCCCCCCCCCC(C)(C)CO` came in with a melting point of 45 to 47 °C.
Turning to `CCOC(=O)C(O)CCc1ccc(C(=O)CCc2nc(-c3ccccc3)oc2C)cc1` (stereo unspecified), the melting point was in the range of 87 to 88 °C.
With `CCC1=C(c2ccccc2)C(c2ccccc2)=C(CC)C1=C(C#N)C#N` the figure was 154 to 156 °C; with `Cc1cc(C)cc(C(=O)N2CCC(N3CCC(NC(=O)c4ccccc4N)CC3)CC2Cc2ccccc2)c1` (stereo unspecified), 121 °C.
With `CC(=O)NC1C(O)OC(COC(C)=O)C(O)(C(C)=O)C1OC(C)C(=O)O` (stereo unspecified) the figure was 85.8 to 90.8 °C.
For `O=C1C(Cl)=C(Nc2ccc(S(=O)(=O)Nc3ccccn3)cc2)C(=O)c2ccccc21`, the melting point lay within 273 to 275 °C.
With `CCCn1c(=O)c2c(nc(C=Cc3cc(OC)c(OC)c(OC)c3S(=O)(=O)O)n2C)n(CCC)c1=O` the figure was 248 to 250 °C.
As for `COc1ccc(C2=NN(C3CCN(C(C)=O)CC3)C(=O)C3CC=CCC23)cc1Cl` (stereo unspecified), the melting point was 206 to 208 °C.
The same measure for `CCCCOCCOc1ccc(-c2ccc(N3CC(C)C(C)C3)c(C=C(C)C(=O)OCC)c2)cc1` (stereo unspecified): 67 to 69 °C; for `CC(=O)N1c2ccccc2-n2cnc(-c3nc(C4CC4)no3)c2C1(C)C`: 169 to 171 °C; for `CCCC(CCC)n1c(CC)nc2c1c(=O)n(C)c(=O)n2-c1ccc(Cl)cc1Cl`: 185 to 186 °C.
`Nc1ccc2c(c1)C(=O)CC1(CCN(CCc3ccc4nonc4c3)CC1)O2` came in with a melting point of 191 to 193 °C.
In turn, `COC(=O)c1cc(N=Cc2ccccc2)ccc1O` showed a melting point of 58 to 59 °C.
Regarding `CCOC(=S)c1cnc(Cc2ccccc2)nc1N`, the melting point was 117 to 118 °C.
For the compound `[N-]=[N+]=NCC1CN(c2cc(F)c(-c3cccnc3)c(F)c2)C(=O)O1` (stereo unspecified), the melting point was 97 to 98 °C.
With `O=C1[C@@H]2CCCN2C(=O)N1c1cc(Cl)cc(Cl)c1` the figure was 169 °C; with `COc1ccc(-c2c(Cl)c(CNC(C)(C)C)nc3sc4c(c23)CCN(C(=O)c2ccccc2)C4)cc1OC`, 204 to 205 °C; with `CCn1nc2c(N)nc3ccccc3c2c1CCc1ccccc1`, 179 to 181 °C.
